Earlier results in patent publication EP1239029B1, “Cleaning compositions” (UNILEVER PLC, priority 2001, dated 2002).
Where two headings read alike, the source gives them in different places.

[1] = other common materials, by contrast, at 20°C

Row | Structure (SMILES) | Water Solubility (g/100g) [1] [g/100g] | Water Solubility (g/100g) (highly water-soluble materials, grams of solid to form a saturated solution in 100 grams of water at 20°C)
1 | O=BO[O-].[Na+] [Sodium perborate anhydrous] | 3.7 | 
2 | NC(N)=O [Urea] |  | >100
3 | O=P(O)(O)OP(=O)(O)OP(=O)(O)O [Sodium tripolyphosphate anhydrous] | 15 | 
